The values below come from ChEMBL document CHEMBL3870316, “Design, synthesis and structure-activity relationships of novel 4-phenoxyquinoline derivatives containing 1,2,4-triazolone moiety as c-Met kinase inhibitors” (Eur J Med Chem, 2016).

By IC50 is commonly meant the concentration at which inhibition is half-maximal.

Assay [1] can be described thus: Cytotoxicity against c-Met over-expressed human HT-29 cells assessed as cell growth inhibition after 72 hrs by MTT assay. Particulars: HT-29, 72 h. A general note: Formazan colour is commonly taken as a measure of viable cells.
The nature of assay [2]: Cytotoxicity against c-Met over-expressed human H460 cells assessed as cell growth inhibition after 72 hrs by MTT assay. Particulars: NCI-H460, 72 h.
Assay [3] in a line: Cytotoxicity against c-Met over-expressed human A549 cells assessed as cell growth inhibition after 72 hrs by MTT assay. The conditions noted are these: A549, 72 h.
Assay [4] can be described thus: Cytotoxicity against c-Met over-expressed human MKN45 cells assessed as cell growth inhibition after 72 hrs by MTT assay. The conditions noted are these: MKN-45, 72 h.
The species named for the next assay is Homo sapiens. Put plainly: Selectivity ratio of IC50 for VEGFR2 (unknown origin) to IC50 for c-MET (unknown origin).

Each structure is given as a SMILES string.

As for `COc1cc2c(Oc3ccc(NC(=O)c4nn(-c5ccccc5OC(F)(F)F)c(=O)n4C)cc3F)ccnc2cc1OCCCN1CCN(C)CC1`, the concentration for half-maximal inhibition (IC50) was found to be 0.18 µM in assay [1], 0.2 µM in assay [2], 0.09 µM in assay [3] and 0.02 µM in assay [4].

Take `COc1cc2c(Oc3ccc(NC(=O)c4nn(-c5ccccc5)c(=O)n4C)cc3F)ccnc2cc1OCCCN1CCOCC1`: the IC50 in assay [1] came out at 1.46 µM; in assay [2], 1.7 µM; in assay [3], 0.7 µM; in assay [4], 0.95 µM.

As to `COc1cc2c(Oc3ccc(NC(=O)c4nn(-c5c(C)cccc5C)c(=O)n4C)cc3F)ccnc2cc1OCCCN1CCC(C)CC1`, the IC50 in assay [1] was 2.68 µM; in assay [2], 3.22 µM; in assay [3], 4.55 µM; in assay [4] it was 2.23 µM.

Turning to `COc1cc2c(Oc3ccc(NC(=O)c4nn(-c5ccc(Cl)cc5Cl)c(=O)n4C)cc3F)ccnc2cc1OCCCN1CCCCC1`, the IC50 in assay [1] came to 0.34 µM; in assay [2], 0.38 µM; in assay [3], 0.32 µM; in assay [4], 0.29 µM.

Regarding `COc1cc2c(Oc3ccc(NC(=O)c4nn(-c5ccccc5OC(F)(F)F)c(=O)n4C)cc3F)ccnc2cc1OCCCN1CCC(C)CC1`, the IC50 in assay [1] was 0.19 µM; in assay [2], 0.35 µM; in assay [3], 0.18 µM; in assay [4], 0.095 µM.

`CCn1c(C(=O)Nc2ccc(Oc3ccnc4cc(OCCCN5CCC(C)CC5)c(OC)cc34)c(F)c2)nn(-c2ccccc2OC(F)(F)F)c1=O`: the IC50 in assay [1] came to 0.16 µM; in assay [2], 0.2 µM; in assay [3], 0.22 µM; in assay [4], 0.087 µM.

For `COc1cc2c(Oc3ccc(NC(=O)c4nn(-c5ccc(F)cc5)c(=O)n4C)cc3F)ccnc2cc1OCCCN1CCOCC1`, the IC50 came out at 1.23 µM in assay [1], 0.81 µM in assay [2], 0.4 µM in assay [3] and 0.64 µM in assay [4].

Turning to `COc1cc2c(Oc3ccc(NC(=O)c4nn(-c5ccc(Cl)cc5Cl)c(=O)n4C)cc3F)ccnc2cc1OCCCN1CCN(C)CC1`, the half-maximal inhibitory concentration (IC50) in assay [1] is 0.3 µM; in assay [2] it was 0.24 µM; in assay [3], 0.25 µM; in assay [4], 0.18 µM.

Turning to `COc1cc2c(Oc3ccc(NC(=O)c4nn(-c5ccc(OC(F)F)cc5)c(=O)n4C)cc3F)ccnc2cc1OCCCN1CCC(C)CC1`, the concentration for half-maximal inhibition (IC50) stood at 0.19 µM in assay [1], 0.25 µM in assay [2], 0.12 µM in assay [3] and 0.22 µM in assay [4].

For the compound `COc1cc2c(Oc3ccc(NC(=O)c4nn(-c5ccc(F)cc5)c(=O)n4C)cc3F)ccnc2cc1OCCCN1CCCC1`, the 50% inhibitory concentration (IC50) in assay [1] turned out to be 0.97 µM; in assay [2], 0.73 µM; in assay [3], 0.68 µM; in assay [4] it was 0.76 µM.

Regarding `COc1cc2c(Oc3ccc(NC(=O)c4cn(-c5ccccc5Cl)nn4)cc3F)ccnc2cc1OCCCN1CCCCC1`, the Ratio IC50 in the assay listed under Homo sapiens stood at 53.

In the case of `COc1cc2c(Oc3ccc(NC(=O)c4nn(-c5ccccc5)c(=O)n4C)cc3F)ccnc2cc1OCCCN1CCC(C)CC1`, the IC50 in assay [1] was 0.67 µM; in assay [2], 0.83 µM; in assay [3] it was 0.38 µM; in assay [4] it was 0.47 µM.

With `COc1cc2c(Oc3ccc(NC(=O)c4nn(-c5c(C)cccc5C)c(=O)n4C)cc3F)ccnc2cc1OCCCN1CCN(C)CC1`, the IC50 in assay [1] amounted to 1.26 µM; in assay [2], 2.4 µM; in assay [3], 0.98 µM; in assay [4], 1.66 µM.

Consider `COc1cc2c(Oc3ccc(NC(=O)c4nn(-c5ccccc5Cl)c(=O)n4C4CC4)cc3F)ccnc2cc1OCCCN1CCN(C)CC1`, for which the IC50 in assay [1] came to 0.19 µM; in assay [2] it was 0.23 µM; in assay [3], 0.13 µM; in assay [4], 0.063 µM.

Take `COc1cc2c(Oc3ccc(NC(=O)c4nn(-c5ccc(F)cc5)c(=O)n4C)cc3F)ccnc2cc1OCCCN1CCCCC1`: the IC50 is 0.4 µM in assay [1], 0.58 µM in assay [2], 0.35 µM in assay [3] and 0.4 µM in assay [4].

Regarding `COc1cc2c(Oc3ccc(NC(=O)c4nn(-c5ccccc5OC(F)(F)F)c(=O)n4C)cc3F)ccnc2cc1OCCCN1CCCCC1`, the IC50 in assay [1] is 0.21 µM; in assay [2], 0.29 µM; in assay [3] it was 0.13 µM; in assay [4], 0.08 µM.

For the compound `COc1cc2c(Oc3ccc(NC(=O)c4nn(-c5ccccc5)c(=O)n4C)cc3F)ccnc2cc1OCCCN1CCN(C)CC1`, the IC50 came out at 0.65 µM in assay [1], 0.62 µM in assay [2], 0.46 µM in assay [3] and 0.56 µM in assay [4].

With `COc1cc2c(Oc3ccc(NC(=O)c4nn(-c5ccccc5Cl)c(=O)n4C)cc3F)ccnc2cc1OCCCN1CCC(C)CC1`, the IC50 in assay [1] came out at 0.15 µM; in assay [2], 0.2 µM; in assay [3], 0.24 µM; in assay [4] it was 0.35 µM.

`COc1cc2c(Oc3ccc(NC(=O)c4nn(-c5ccc(OC(F)F)cc5)c(=O)n4C)cc3F)ccnc2cc1OCCCN1CCCCC1`: the IC50 in assay [1] was determined as 0.28 µM; in assay [2], 0.31 µM; in assay [3], 0.22 µM; in assay [4], 0.13 µM.

With `COc1cc2c(Oc3ccc(NC(=O)c4nn(-c5cccc(F)c5)c(=O)n4C)cc3F)ccnc2cc1OCCCN1CCCCC1`, the IC50 in assay [1] turned out to be 0.43 µM; in assay [2], 0.35 µM; in assay [3], 0.38 µM; in assay [4] it was 0.33 µM.

Take `COc1cc2c(Oc3ccc(NC(=O)c4nn(-c5ccccc5F)c(=O)n4C)cc3F)ccnc2cc1OCCCN1CCCCC1`: the IC50 came to 0.16 µM in assay [1], 0.26 µM in assay [2], 0.22 µM in assay [3] and 0.07 µM in assay [4].

As for `COc1cc2c(Oc3ccc(NC(=O)c4nn(-c5ccc(Cl)cc5Cl)c(=O)n4C)cc3F)ccnc2cc1OCCCN1CCC(C)CC1`, the IC50 in assay [1] worked out at 0.18 µM; in assay [2], 0.45 µM; in assay [3], 0.35 µM; in assay [4] it was 0.4 µM.

With `COc1cc2c(Oc3ccc(N/C=C4\C(=O)N(c5ccccc5C(F)(F)F)N=C4C)cc3F)ccnc2cc1OCCCN1CCOCC1`, the Ratio IC50 in the assay filed under Homo sapiens was 172.

Turning to `COc1ccc(-n2nc(C(=O)Nc3ccc(Oc4ccnc5cc(OCCCN6CCCCC6)c(OC)cc45)c(F)c3)n(C)c2=O)cc1`, the IC50 in assay [1] is 3.12 µM; in assay [2], 2.84 µM; in assay [3], 0.96 µM; in assay [4] it was 0.88 µM.

With `COc1cc2c(Oc3ccc(NC(=O)c4nn(-c5ccccc5Cl)c(=O)n4C)cc3F)ccnc2cc1OCCCN1CCN(C)CC1`, the half-maximal inhibitory concentration (IC50) in assay [1] came to 0.17 µM; in assay [2], 0.34 µM; in assay [3], 0.16 µM; in assay [4] it was 0.088 µM.

For `COc1cc2c(Oc3ccc(NC(=O)c4nn(-c5ccccc5Cl)c(=O)n4C)cc3F)ccnc2cc1OCCCN1CCCCC1`, the IC50 in assay [1] came out at 0.18 µM; in assay [2], 0.3 µM; in assay [3], 0.19 µM; in assay [4], 0.22 µM.

For `COc1cc2c(Oc3ccc(NC(=O)c4nn(-c5ccccc5OC(F)(F)F)c(=O)n4C4CC4)cc3F)ccnc2cc1OCCCN1CCC(C)CC1`, the IC50 in assay [1] was 0.11 µM; in assay [2], 0.24 µM; in assay [3], 0.12 µM; in assay [4], 0.1 µM.
